Results reported in US20080187984A1, “Myo-inositol oxygenases” (Cargill, Incorporated, priority 2001, published 2008).

How the values were obtained:
[1] = molecular target: T1, ycbD product (aldehyde dehydrogenase) (Bacillus subtilis, UniProt P42236); experiment: Dehydrogenase activity of cell extracts, absorbance at 340 nm; type: biochemical; settings: 200 mM substrate, 0.05 mL cell extract (0.25 mg protein); for Relative Activity NAD: 1 mM NAD; for Relative Activity NADP: 1 mM NADP
T1 construct: made in house; host or cells: E. coli BLR(DE3), [ycbD+ycbE]-pET30a, desalted cell extract
Experimental: The dehydrogenase activity of the cell extracts was followed using acetaldehyde, glucuronic acid, and glucurono-3,6-lactone as substrates in 96-well plates. Each assay mixture contained 100 mM potassium phosphate, pH 7.8, 1 mM NADP or NAD, 200 mM substrate, and between 0.02 and 0.1 mL cell extract (0.1 to 0.5 mg protein). The reactions were started by adding the enzyme and were incubated at 30° C. in the spectrophotometer. The dehydrogenase activity was followed by monitoring the linear change in absorbance at 340 nm over a 10 minute time period (referenced to a reaction mixture without substrate).

beta-glucuronidase = settings: cited from earlier work
serum cholesterol = settings: mammals; cited from earlier work
[2] = molecular target: T2, myo-inositol oxygenase (MIO) (Homo sapiens, UniProt Q9UGB7); experiment: MIO-orcinol assay of recombinant human MIO; type: biochemical
T2 construct: made in house; host or cells: Hi5 / Sf-9 insect cells (baculovirus, pFastBacHTa); also E. coli DH10B (pTRC99A) and S. cerevisiae INVSc1 (pYES2)
T2 sequence (Q9UGB7 with tags, fused parts or gaps): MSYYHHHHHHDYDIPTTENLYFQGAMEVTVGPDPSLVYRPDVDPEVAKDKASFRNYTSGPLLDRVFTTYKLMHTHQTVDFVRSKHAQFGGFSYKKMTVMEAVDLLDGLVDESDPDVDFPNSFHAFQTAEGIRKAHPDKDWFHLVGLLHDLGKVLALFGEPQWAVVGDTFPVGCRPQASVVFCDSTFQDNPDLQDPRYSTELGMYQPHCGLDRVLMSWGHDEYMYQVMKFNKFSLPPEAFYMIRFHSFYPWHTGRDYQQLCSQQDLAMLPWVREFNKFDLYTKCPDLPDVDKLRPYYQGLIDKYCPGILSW
Experimental: MIO activity was determined using a modification of the method described by Reddy et al. (J. Biol. Chem., 256, 8510 (1981)). Briefly, this assay is based on the reaction of orcinol (5-methyl-1,3-benzenediol) with the MIO enzyme reaction product, D-glucuronic acid. The standard assay mixture contained 50 mM Tris-HCl (pH 8.0), 2.0 mM cysteine, 1.0 mM ferrous ammonium sulfate, 60 mM myo-inositol, and appropriate quantities of enzyme in a total volume of 0.50 mL. The stock L-cysteine solution (0.10 M) was prepared every two weeks, and the stock ferrous ammonium sulfate solution (0.50 M) was prepared fresh daily. The enzyme solutions consisted of cell extracts prepared as described or chromatography fractions generated during the partial purification of the enzyme. Prior to initiating the reaction by addition of the substrate myo-inositol (stock solution of 0.50 M, dissolved in 50 mM TEGG), all other reagents were mixed together by vortexing and incubated for 5 minutes at 30° C. The substrate was then added to initiate the assay. After vortex-mixing the components, the reaction was carried out in an air atmosphere at 30° C. with shaking at 200 rpm for 10 minutes. The reaction was terminated by the addition of 75 μL of 20% trichloroacetic acid. After vortexing, the assay mixture was transferred to a 1.5 mL polypropylene microcentrifuge tube, and the precipitated polypeptide was separated by centrifugation at 21,000×g for 3 minutes at 25° C. The supernatant was transferred to a new 1.5 mL polypropylene microcentrifuge tube, and the D-glucuronic acid concentration was determined by the orcinol colorimetric assay.
The orcinol colorimetric determination assay was performed as follows. Freshly prepared orcinol reagent (0.6 mL; 0.4% (w/v) orcinol, 0.09% (w/v) ferric trichloride hexahydrate in concentrated HCl) was added to 0.3 mL of the clear supernatant. The mixture was vortex-mixed and then incubated in a boiling water bath for 30 minutes. After cooling to 25° C., the mixture was cleared by centrifugation at 21,000×g for 3 minutes. The supernatant was transferred to a disposable cuvette, and the absorbance was measured at 660 nm. A standard curve was generated by replacing the enzyme fraction with D-glucuronic acid (0 to 40 μg/mL) and carrying out the assay as described above. […]
All reactions were run in duplicate, and all polypeptide fractions were assayed with and without added myo-inositol substrate (an equal volume of TEGG buffer with or without substrate was added to initiate the assay). The average of the absorbance readings of the assay mixtures carried out without substrate was subtracted from the average of readings of the assay mixtures containing substrate. […]

glucuronate reductase = molecular target: T3, glucuronate reductase (Rattus norvegicus, UniProt P51635, T2A); experiment: GLR assay, loss of absorbance at 340 nm (loss of NADPH); type: biochemical
T3 construct: His tag (pET30a fusion); made in house; host or cells: E. coli BLR(DE3), pET30a
T3 sequence (P51635 1-325 T2A): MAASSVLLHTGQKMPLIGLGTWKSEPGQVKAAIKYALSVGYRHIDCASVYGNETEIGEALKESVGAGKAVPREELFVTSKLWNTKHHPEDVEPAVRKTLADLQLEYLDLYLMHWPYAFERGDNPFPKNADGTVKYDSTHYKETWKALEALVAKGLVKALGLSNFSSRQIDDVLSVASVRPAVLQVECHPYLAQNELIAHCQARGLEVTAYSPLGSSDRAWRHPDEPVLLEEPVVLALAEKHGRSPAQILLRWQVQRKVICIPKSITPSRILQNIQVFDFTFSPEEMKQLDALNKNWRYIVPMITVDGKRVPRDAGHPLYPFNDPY
Experimental: GLR was assayed by following the loss of absorbance at 340 nm (loss of NADPH) using 0.3 mM NADPH, 10 mM glucuronic acid, and variable amount of enzyme in 100 mM sodium phosphate, pH 6.6 (Hayashi et al., J. Biochem., 95:2223-2232 (1984)). 1-2 micromoles of NADPH were typically consumed per minute per mg protein.

T1 sequence (P42236 whole entry): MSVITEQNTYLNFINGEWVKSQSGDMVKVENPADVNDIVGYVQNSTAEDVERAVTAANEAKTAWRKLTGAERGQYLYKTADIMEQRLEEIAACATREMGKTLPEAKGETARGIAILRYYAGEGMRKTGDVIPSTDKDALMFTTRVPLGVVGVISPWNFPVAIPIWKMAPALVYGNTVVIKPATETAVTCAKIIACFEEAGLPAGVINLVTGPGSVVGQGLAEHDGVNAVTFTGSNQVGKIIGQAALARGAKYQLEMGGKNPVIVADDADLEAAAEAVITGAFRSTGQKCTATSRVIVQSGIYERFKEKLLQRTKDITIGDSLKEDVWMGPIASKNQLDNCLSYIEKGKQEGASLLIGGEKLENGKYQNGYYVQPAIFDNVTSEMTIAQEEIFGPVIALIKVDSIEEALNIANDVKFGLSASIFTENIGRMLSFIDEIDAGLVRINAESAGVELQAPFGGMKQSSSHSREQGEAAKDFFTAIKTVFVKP

O=C[C@H](O)[C@H]1OC(=O)[C@@H](O)[C@H]1O [D-glucurono-3,6-lactone]
Relative Activity NAD [1]: 2.1 percentage of maximum activity
Relative Activity NADP [1]: 50.6 percentage of maximum activity

O=C[C@H](O)[C@@H](O)[C@H](O)[C@H](O)C(=O)O [D-glucuronate]
Relative Activity NAD [1]: 2.4 percentage of maximum activity
Relative Activity NADP [1]: 2.1 percentage of maximum activity

O=C(O)[C@@H](O)[C@@H](O)[C@H](O)[C@@H](O)C(=O)O [Glucaric acid]
inhibition of beta-glucuronidase (beta-glucuronidase): potent inhibitor
effect on serum cholesterol (serum cholesterol): lower serum cholesterol

CC=O [acetaldehyde]
Relative Activity NAD [1]: 56.9 percentage of maximum activity
Relative Activity NADP [1]: 100.0 percentage of maximum activity

B1: human MIO polypeptide: Human myo-inositol oxygenase (ORF EMBL: CAB63064.1) expressed in E. coli or S. cerevisiae, assayed in cell extracts (protein, UniProt Q9UGB7 1-285, looked up)
Inositol oxygenase: MKVTVGPDPSLVYRPDVDPEVAKDKASFRNYTSGPLLDRVFTTYKLMHTHQTVDFVRSKHAQFGGFSYKKMTVMEAVDLLDGLVDESDPDVDFPNSFHAFQTAEGIRKAHPDKDWFHLVGLLHDLGKVLALFGEPQWAVVGDTFPVGCRPQASVVFCDSTFQDNPDLQDPRYSTELGMYQPHCGLDRVLMSWGHDEYMYQVMKFNKFSLPPEAFYMIRFHSFYPWHTGRDYQQLCSQQDLAMLPWVREFNKFDLYTKCPDLPDVDKLRPYYQGLIDKYCPGILSW
specific activity ([2]; E. coli, pTRC99A, IPTG induced, desalted cell extract): 8.8 μg glucuronic acid formed per mg polypeptide in 10 minutes
specific activity ([2]; S. cerevisiae INVSc1, pYES2, cell extract, 12 hours after induction): 13.4 μg glucuronic acid formed per mg polypeptide in 10 minutes

B2: purified polypeptide: His-tagged human MIO polypeptide, SEQ ID NO:12, expressed by baculovirus in insect cells (protein)
chain: MSYYHHHHHHDYDIPTTENLYFQGAMEVTVGPDPSLVYRPDVDPEVAKDKASFRNYTSGPLLDRVFTTYKLMHTHQTVDFVRSKHAQFGGFSYKKMTVMEAVDLLDGLVDESDPDVDFPNSFHAFQTAEGIRKAHPDKDWFHLVGLLHDLGKVLALFGEPQWAVVGDTFPVGCRPQASVVFCDSTFQDNPDLQDPRYSTELGMYQPHCGLDRVLMSWGHDEYMYQVMKFNKFSLPPEAFYMIRFHSFYPWHTGRDYQQLCSQQDLAMLPWVREFNKFDLYTKCPDLPDVDKLRPYYQGLIDKYCPGILSW
modifications: His tag; human polypeptide with non-human sequences
MIO activity ([2]; Hi5 insect cells, baculovirus expression, FIG. 8): exhibited MIO activity
specific activity ([2]; Nickel-NTA purified to homogeneity, from insect cells): 225 μg glucuronic acid formed per mg polypeptide during a 10 minute assay

B3: GLR: glucuronate reductase, rat glr expressed from pET30a in E. coli, His-Bind purified (protein, UniProt P51635 2-325, looked up)
Aldo-keto reductase family 1 …: TASSVLLHTGQKMPLIGLGTWKSEPGQVKAAIKYALSVGYRHIDCASVYGNETEIGEALKESVGAGKAVPREELFVTSKLWNTKHHPEDVEPAVRKTLADLQLEYLDLYLMHWPYAFERGDNPFPKNADGTVKYDSTHYKETWKALEALVAKGLVKALGLSNFSSRQIDDVLSVASVRPAVLQVECHPYLAQNELIAHCQARGLEVTAYSPLGSSDRAWRHPDEPVLLEEPVVLALAEKHGRSPAQILLRWQVQRKVICIPKSITPSRILQNIQVFDFTFSPEEMKQLDALNKNWRYIVPMITVDGKRVPRDAGHPLYPFNDPY
modifications: His tag
NADPH consumed (glucuronate reductase; 0.3 mM NADPH, 10 mM glucuronic acid, pH 6.6): 1-2 micromoles per minute per mg p
Specific Activity (purified protein) (glucuronate reductase; His-Bind purified from E. coli): 1 to 3 µmol/min/mg
